{"source": "patent US20260345555A1", "about": "“Compositions and Methods for Protecting Salivary Glands from Off-Target Radiation Damage” (University of Rochester, priority 2022, published 2026)", "key": {"[1]": {"tested_on": "γH2AX foci per nucleus in mouse submandibular gland", "assay": "In vivo radioprotection of mouse salivary gland: γH2AX foci per nucleus (IHC) 48 hours after 15 Gy, retroductal injection", "procedure": "Female SKH1 hairless mice, backcrossed 6 generations with C57BL/6J mice, aged 6-12 weeks were used in this study for in vitro assay development and drug discovery. Female C57BL/6J mice age 6-8 weeks were used for in vivo validation studies. […] Animals were maintained on a 12 hr light/dark cycle and group-housed with food and water available ad libitum.\nBriefly, 6-10 week old female C57Bl/6 J mice were anesthetized by intraperitoneal injection of sterile saline solution of 100 mg/kg ketamine and 10 mg/kg xylazine. Maxillary incisors were secured over a metal beam, while an elastic band provided tension from behind the mandibular incisors. The mouth was widened using a custom steel retractor to apply pressure to the buccal mucosa and the tongue was retracted and cotton placed in the oral cavity. The wire inset of a 32 G intracranial catheter was cut at […] to create a bevel. The beveled wire created a shallow puncture in the left salivary papilla. A beveled catheter section containing the wire insert for support was gently inserted into the puncture site. The catheter was removed, and 1 mg/kg atropine was administered by intraperitoneal injection. After 10 min, the needle of a Hamilton syringe, loaded with vehicle or drug solution, was inserted into the catheter, and the catheter was inserted into the orifice produced in the papilla. Drug solutions were injected by hand at 10 μl/min at a volume of 1 μl/g of body weight. Following injection, the pressure was maintained on the syringe for 1 min to ensure material retention before removal of the catheter.\nThe head and neck region was positioned over the slit of a custom collimator, which allowed body shielding.\nSubmandibular glands and SGm were isolated and fixed in 4% paraformaldehyde overnight at 4 °C. Tissues were paraffin-embedded and then cut into […] sections. […] Permeabilization was performed with 0.5% Triton X-100 in PBS for 5 minutes. […] Following a PBS rinse, […] DAPI (Invitrogen, Carlsbad, CA) in PBS was applied to sections for 5 minutes. Sections were washed thrice in PBS for 5 minutes and the slides were mounted using Immu-Mount mounting medium (Thermo). Microscopic images were acquired using a Leica TCS SP5 confocal microscope with a 100× oil immersion objective and Argon laser. Analysis of images was performed in ImageJ."}, "[2]": {"tested_on": "senescence-associated β-galactosidase in salivary gland cell clusters (SGm)", "assay": "Cellular senescence assay (SPiDER-βGal) in salivary gland tissue chip, 5 days post-radiation (15 Gy); also second screen of library hits at 100 μM; on Senescence (radioprotection): key: +: radioprotection; ~: partial radioprotection; —: no radioprotection", "format": "cell-based, mouse", "conditions": "for double hit in the drug screen: glutathione and senescence assays, 100 μM, statistically similar to 0 Gy; for Estimated EC50, Senescence: nonlinear fit in Prism of dose response curves; for Estimated EC50, Senescence / radioprotection in dose response, senescence assay / protection against radiation-induced senescence: 15 Gy; for protection against radiation-induced senescence: 5 days post-radiation"}, "[3]": {"conditions": "phenylbutazone 50 mg/kg, corn oil"}}, "note": "“Also recorded” adds a separate entry of the source.", "data": [{"molecule": "CCn1cc(C(=O)O)c(=O)c2cc(F)c(N3CCNCC3)nc21", "note": "[Enoxacin (Penetrex)]", "values": [{"measurement": "reduction in γH2AX foci per nucleus compared to 15 Gy controls", "setting": "[1]; enoxacin 0.3 mg/kg", "value": 0.5, "unit": "fold"}, {"measurement": "increase in γH2AX foci per nucleus", "setting": "[1]; enoxacin 0.3 mg/kg, comparator not given", "value": 1.6, "unit": "fold"}, {"measurement": "double hit in the drug screen", "setting": "[2]", "value": "double hits"}, {"measurement": "Estimated EC50, Senescence", "setting": "[2]", "value": 500, "unit": "nM"}]}, {"molecule": "CCCCC1C(=O)N(c2ccccc2)N(c2ccccc2)C1=O", "note": "[Phenylbutazone]", "values": [{"measurement": "reduction in γH2AX foci per nucleus compared to 15 Gy controls", "setting": "[1]; [3]", "value": 0.4, "unit": "fold"}, {"measurement": "γH2AX foci per nucleus versus 0 Gy controls", "setting": "[1]; [3]", "value": "not significantly different from 0 Gy controls"}, {"measurement": "radioprotection in dose response, senescence assay", "setting": "[2]", "value": "only partial protection"}, {"measurement": "Estimated EC50, Senescence", "setting": "[2]", "value": 50, "unit": "nM"}]}, {"molecule": "NCCCNCCS", "note": "[WR-1065]", "values": [{"measurement": "reduction in γH2AX foci per nucleus compared to 15 Gy controls", "setting": "[1]; WR-1065 50 mg/kg", "value": 0.5, "unit": "fold"}, {"measurement": "γH2AX foci per nucleus versus 0 Gy controls", "setting": "[1]; WR-1065 50 mg/kg", "value": "No significant differences"}, {"measurement": "Senescence (radioprotection)", "setting": "[2]; 1 mM", "value": "+"}, {"measurement": "protection against radiation-induced senescence", "setting": "[2]; 1 mM", "value": "complete radioprotection"}, {"measurement": "Senescence (radioprotection)", "setting": "[2]; 4 mM", "value": "+"}, {"measurement": "protection against radiation-induced senescence", "setting": "[2]; 4 mM", "value": "complete radioprotection; also recorded: restored to levels equivalent to 0 Gy"}]}, {"molecule": "Doripenem hydrate", "values": [{"measurement": "increase in γH2AX foci per nucleus compared to 0 Gy controls", "setting": "[1]; doripenem hydrate 26 mg/kg", "value": 2.7, "unit": "fold"}, {"measurement": "reduction of γH2AX foci per nucleus relative to 15 Gy controls", "setting": "[1]; doripenem hydrate 26 mg/kg", "value": "did not reduce"}, {"measurement": "radioprotection in dose response, senescence assay", "setting": "[2]", "value": "variable protection"}, {"measurement": "double hit in the drug screen", "setting": "[2]", "value": "double hits"}, {"measurement": "Estimated EC50, Senescence", "setting": "[2]", "value": 16400, "unit": "nM"}]}]}
